The text below walks through data of ChEMBL document CHEMBL1146560, “The isolation and structure elucidation of Tasiamide B, a 4-amino-3-hydroxy-5-phenylpentanoic acid containing peptide from the marine Cyanobacterium Symploca sp” (J Nat Prod, 2003).

In the test the test system is KB. The test can be described thus: Cytotoxicity against human KB cells. Type of test: functional, cell-based.

*1 amine or outer side, *2 acyl side, *3 side chain or, on linkers, in order; H or OH if unused. Where a SMILES comes first, the peptide text is derived from it. [ ]: non-standard residue; d: D form. Ahppa(3S,4S) = O=C(C[C@H](O)[C@H](Cc1ccccc1)N[*:1])[*:2]; dNMeF = CN[C@H](Cc1ccccc1)C(=O)O; NMeQ = CN[C@@H](CCC(N)=O)C(=O)O; Lac = C[C@H](O)C(=O)O

Turning to `COC(=O)[C@@H]1CCCN1C(=O)[C@@H](Cc1ccccc1)N(C)C(=O)[C@H](C)NC(=O)[C@H](CC(C)C)NC(=O)C[C@H](O)[C@H](Cc1ccccc1)NC(=O)[C@H](CCC(N)=O)N(C)C(=O)[C@@H](NC(=O)[C@H](C)O)C(C)C` [TASIAMIDE B] (H-[Lac]V[NMeQ][Ahppa(3S,4S)]LA[dNMeF]P-OMe), the IC50 (usually the midpoint of a concentration-inhibition curve) turned out to be 800 nM.
